# Read-outs that look alike come from different tables or passages of the source.
# Assays:
# human AR [1] = biological target: T1, human AR (Homo sapiens, UniProt P10275); assay: cell-based; type: cell-based; settings: for EC50: read-out: AR Agonist CV-1 Cells Potency
# T1 construct: expressed in transfected cells; host or cells: CV-1 cells (African green monkey kidney fibroblasts)
# T1 sequence (P10275 1-920): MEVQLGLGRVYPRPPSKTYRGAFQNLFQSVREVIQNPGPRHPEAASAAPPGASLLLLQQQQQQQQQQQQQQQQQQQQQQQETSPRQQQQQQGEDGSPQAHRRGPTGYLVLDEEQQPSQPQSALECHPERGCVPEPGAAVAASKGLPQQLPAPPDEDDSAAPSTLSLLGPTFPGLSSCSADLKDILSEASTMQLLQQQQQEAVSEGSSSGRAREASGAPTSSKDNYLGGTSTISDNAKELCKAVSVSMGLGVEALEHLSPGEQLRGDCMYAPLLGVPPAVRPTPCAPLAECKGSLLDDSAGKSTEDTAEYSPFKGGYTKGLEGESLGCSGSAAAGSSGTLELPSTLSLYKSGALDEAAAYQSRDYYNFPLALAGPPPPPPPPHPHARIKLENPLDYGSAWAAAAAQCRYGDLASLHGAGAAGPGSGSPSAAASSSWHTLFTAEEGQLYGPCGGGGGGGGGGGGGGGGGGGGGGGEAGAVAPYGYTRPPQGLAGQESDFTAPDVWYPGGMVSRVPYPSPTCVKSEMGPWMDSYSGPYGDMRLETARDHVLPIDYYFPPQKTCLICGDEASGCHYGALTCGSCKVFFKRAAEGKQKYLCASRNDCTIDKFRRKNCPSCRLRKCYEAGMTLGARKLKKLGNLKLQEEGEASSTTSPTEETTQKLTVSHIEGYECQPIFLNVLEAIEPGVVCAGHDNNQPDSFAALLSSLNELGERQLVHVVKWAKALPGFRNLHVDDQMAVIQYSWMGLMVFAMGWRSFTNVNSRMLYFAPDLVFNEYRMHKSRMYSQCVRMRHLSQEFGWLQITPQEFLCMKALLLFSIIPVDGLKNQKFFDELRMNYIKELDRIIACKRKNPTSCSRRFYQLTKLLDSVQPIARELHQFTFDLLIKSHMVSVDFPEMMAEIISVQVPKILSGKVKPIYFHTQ
# Text: The co-transfection assay provides a method for identifying functional agonists and partial agonists which mimic, or antagonists which inhibit, the effect of native hormones, and quantifying their activity for responsive IR proteins. In this regard, the co-transfection assay mimics an in vivo system in the laboratory. Importantly, activity in the co-transfection assay correlates very well with known in vivo activity, such that the co-transfection assay functions as a qualitative and quantitative predictor of a tested compounds in vivo pharmacology. See, e.g., T. Berger et al. 41 J. Steroid Biochem. Molec.
# CV-1 cells (African green monkey kidney fibroblasts) were cultured in the presence of Dulbecco's Modified Eagle Medium (DMEM) supplemented with 10% charcoal resin-stripped fetal bovine serum then transferred to 96-well microtiter plates one day prior to transfection.
# The reporter plasmid, MTV-LUC, contains the cDNA for firefly luciferase (LUC) under control of the mouse mammary tumor virus (MTV) long terminal repeat, a conditional promoter containing an androgen response element. See e.g., Berger et al. supra. In addition, pRS-β-Gal, coding for constitutive expression of E. coli β-galactosidase (β-Gal), was included as an internal control for evaluation of transfection efficiency and compound toxicity.
# Three to four replicates were used for each sample.
# After 40 hours, the cells were washed with PBS, lysed with a Triton X-100-based buffer and assayed for LUC and β-Gal activities using a luminometer or spectrophotometer, respectively. For each replicate, the normalized response (NR) was calculated as:
# where β-Gal rate=β-Gal•1×10^−5/β-Gal incubation time.
# human AR [2] = biological target: T1, human AR; assay: cell-based; settings: read-out: AR Binding Ki
# [3] = system: immature castrated male rat; assay: Immature castrated male rat model with testosterone silastic implant, ventral prostate and seminal vesicle weights; type: in vivo; settings: for ED50: Rattus norvegicus, 72 h; for effect on ventral prostate and seminal vesicle weights (in words): Tables 5 and 6
# Text: The activity of selected compounds of the present invention as AR antagonists was *~ investigated in an immature castrated male rat model. A recognized test of the antiandrogen activity of a given compound, as described in L. G. Hershberger et al., 83 Proc. Soc. Exptl. […] Similar approaches have been used in the rat and in hamsters. […] Dermatol.
# The basis of this assay is the fact that male sexual accessory organs, such as the prostate and seminal vesicles, play an important role in reproductive function. […] See F. Labrie et al., 16 Clin. Invest. […] However, this is not a major pathway since, in both animals and humans, castration without concomitant adrenalectomy leads to almost complete involution of the prostate and seminal vesicles. […] See M. C. […] Since the male sex organs are the tissues most responsive to modulation by androgen activity, this model is used to determine the androgen-dependent growth of the sex accessory organs in immature castrated rats.
# Immature male rats (50-60 g, 21 day-old Sprague-Dawley, Harlan) were castrated under metofane anesthesia. […] As a negative control, a group of castrated animals received empty 10 mm silastic implants. Animal groups were dosed for 3 days by oral gavage as follows:
# At the end of the 3-day treatment, the animals were sacrificed, and the ventral prostates and seminal vesicles were collected and weighed. Organ weight data were normalized to body weight of each animal and expressed as mg/100 g body weight. Results were analyzed by analysis of variance followed by the Dunnett's test. Data were transformed to comply with the normality and variance homogeneity criteria required to utilize the analysis of variance and Dunnett's test. The following data transformations were used for the ventral prostate and seminal vesicle: square root and power 0.7 respectively. Thereafter, the data were fitted to a four-parameter logistic equation and potencies derived from the fitted estimates. The same data transformations were used for the equation-fitting phase of the data analysis.
# The gain and loss of sexual organ weights reflect the changes of cell number (DNA content) and cell mass (protein content), depending upon the serum androgen concentrations. […] Therefore, measurement of organ wet weights is sufficient to indicate the bioactivity of androgens and androgen antagonists.
# [4] = agonist mode, percent maximal response relative to reference agonist DHT, na = not active (efficacy < 10 and potency > 10,000)
# [5] = antagonist mode, DHT at its EC50, % of maximal inhibition, na = not active
# [6] = read-out: AR Antagonist CV-1 Cells Potency
# [7] = oral, 3 days, four-parameter logistic fit, number of experiments in parentheses, read-out: Potency (ED50) Weighted Average ± SE, Seminal Vesicle Weight
# [8] = oral, 3 days, four-parameter logistic fit, number of experiments in parentheses, read-out: Potency (ED50) Weighted Average ± SE, Ventral Prostate Weight
# [9] = T implant + 0.1 mg/kg oral, 3 days
# [10] = T implant + 1 mg/kg oral, 3 days
# [11] = T implant + 3 mg/kg oral, 3 days
# [12] = T implant + 10 mg/kg oral, 3 days
# [13] = T implant + 30 mg/kg oral, 3 days
# [14] = T implant + 100 mg/kg oral, 3 days
structure (smiles),measurement,setting,value
"CC12CCCN1c1cc3[nH]c(=O)cc(C(F)(F)F)c3cc1CC2 (racemic) [Compound 101, (R/S)-6,7,7a,11-Tetrahydro-7a-methyl-4-trifluoromethyl-2-pyridono[5,6-g]pyrrolidino[1,2-a]quinoline]",AR Antagonist CV-1 Cells Efficacy,human AR [1],86 ± 6%
same,IC50,human AR [1],325 ± 68 nM
"CCC1CCN(C=O)c2cc3[nH]c(=O)cc(C(F)(F)F)c3cc21 (racemic) [Compound 121, (R/S)-4-Ethyl-1-formyl-1,2,3,4-tetrahydro-6-(trifluoromethyl)-8-pyridono[5,6-g]quinoline]",AR Agonist CV-1 Cells Efficacy,human AR [1],72 ± 20%
same,EC50,human AR [1],150 ± 39 nM
"CCC1CCN(C(=O)C(F)(F)F)c2cc3[nH]c(=O)cc(C(F)(F)F)c3cc21 (racemic) [Compound 122, (R/S)-4-Ethyl-1,2,3,4-tetrahydro-1-(trifluoroacetyl)-6-(trifluoromethyl)-8-pyridono[5,6-g]quinoline]",AR Agonist CV-1 Cells Efficacy,human AR [1]; [4],100 ± 17%
same,EC50,human AR [1],3 nM
same,Ki,human AR [2],7 ± 2 nM
"CCC1CCNc2c1cc1c(C(F)(F)F)cc(=O)[nH]c1c2[N+](=O)[O-] (racemic) [Compound 124, (R/S)-4-Ethyl-1,2,3,4-tetrahydro-10-nitro-6-(trifluoromethyl)-8-pyridono[5,6-g]quinoline]",AR Agonist CV-1 Cells Efficacy,human AR [1]; [4],50 ± 1%
same,EC50,human AR [1],202 ± 18 nM
CC(O)(CS(=O)(=O)c1ccc(F)cc1)C(=O)Nc1ccc(C#N)c(C(F)(F)F)c1 (stereo not shown) [Casodex],ED50,"[3]; po, read-out: Potency (ED50) Weighted Average ± SE, Seminal Vesicle Weight",7.8 ± 0.9 mg/kg
same,ED50,"[3]; po, read-out: Potency (ED50) Weighted Average ± SE, Ventral Prostate Weight",7 ± 0.9 mg/kg
same,effect on ventral prostate and seminal vesicle weights (in words),[3],dose-dependent decrease
"O=c1cc(C(F)(F)F)c2cc3c4c(c2[nH]1)CCCN4CCC3 [Compound 12, 11-(Trifluoromethyl)-9-pyridono[6,5-i]julolidine]",AR Antagonist CV-1 Cells Efficacy,human AR [1]; [5],53 ± 16 %
same,IC50,human AR [1]; [6],2370 ± 215 nM
"Cn1c(=O)cc(C(F)(F)F)c2cc3c4c(c21)CCCN4CCC3 [Compound 13, 8-Methyl-11-(trifluoromethyl)-9-pyridono[6,5-i]julolidine]",AR Antagonist CV-1 Cells Efficacy,human AR [1]; [5],84 ± 6%
same,IC50,human AR [1]; [6],726 ± 84 nM
"CC1=CC(C)(C)Nc2c1cc1c(C(F)(F)F)c(F)c(=O)[nH]c1c2C [Compound 114, 7-Fluoro-1,2-dihydro-2,2,4, 10-tetramethyl-6-trifluoromethyl-8-pyridono[5,6-g]quinoline]",AR Antagonist CV-1 Cells Efficacy,human AR [1]; [5],90 ± 1%
same,IC50,human AR [1]; [6],203 ± 66 nM
"Cc1c2c(cc3c(C(F)(F)F)c(F)c(=O)n(C)c13)C(C)CC(C)(C)N2 (stereo not shown) [Compound 116, 7-Fluoro-1,2,3,4-tetrahydro-2,2,4,9,10-pentamethyl-6-trifluoromethyl-8-pyridono[5,6-g]quinoline]",AR Antagonist CV-1 Cells Efficacy,human AR [1]; [5],20%
same,IC50,human AR [1]; [6],1460 nM
"Cc1c2c(cc3c(C(F)(F)F)c(F)c(=O)[nH]c13)C(C)CC(C)(C)N2C (stereo not shown) [Compound 117, 7-Fluoro-1,2,3,4-tetrahydro-1,2,2,4,10-pentamethyl-6-trifluoromethyl-8-pyridono[5,6-g]quinoline]",AR Antagonist CV-1 Cells Efficacy,human AR [1]; [5],82 ± 1%
same,IC50,human AR [1]; [6],394 ± 75 nM
"CC1(C)CCc2cc3c(C(F)(F)F)cc(=O)[nH]c3c([N+](=O)[O-])c2N1 [Compound 125, 1,2,3,4-Tetrahydro-2,2-dimethyl-10-nitro-6-(trifluoromethyl)-8-pyridono[5,6-g]quinoline]",AR Antagonist CV-1 Cells Efficacy,human AR [1]; [5],73%
same,IC50,human AR [1]; [6],1340 nM
"CC1(C)CCc2cc3c(C(F)(F)F)c([N+](=O)[O-])c(=O)[nH]c3c([N+](=O)[O-])c2N1 [Compound 126, 1,2,3,4-Tetrahydro-2,2-dimethyl-7,10-dinitro-6-(trifluoromethyl)-8-pyridono[5,6-g]quinoline]",IC50,human AR [1],5240 ± 363 nM
same,AR Antagonist CV-1 Cells Efficacy,human AR [1]; [5],44 ± 2 %
"CC(C)C(=O)Nc1ccc([N+](=O)[O-])c(C(F)(F)F)c1 [Flutamide, 2-methyl-N-[4-nitro-3-(trifluoromethyl)phenyl]propanamide]",ED50,[3]; [7],3.3 ± 0.4 mg/kg
same,ED50,[3]; [8],4 ± 0.6 mg/kg
same,Seminal Vesicles weight,[3]; [9],31.1 ± 0.9 (5) mg/100 g body weight
same,Ventral Prostate weight,[3]; [9],78.9 ± 3.5 (5) mg/100 g body weight
same,Seminal Vesicles weight,[3]; [10],27.9 ± 2.5 (5) mg/100 g body weight
same,Ventral Prostate weight,[3]; [10],73.1 ± 4.6 (5) mg/100 g body weight
same,Seminal Vesicles weight,[3]; [11],22.7 ± 0.9 (5) mg/100 g body weight
same,Ventral Prostate weight,[3]; [11],62.4 ± 3.7 (5) mg/100 g body weight
same,Seminal Vesicles weight,[3]; [12],12.4 ± 1.8 (5) mg/100 g body weight
same,Ventral Prostate weight,[3]; [12],43.0 ± 3.6 (5) mg/100 g body weight
same,Seminal Vesicles weight,[3]; [13],9.1 ± 1.3 (5) mg/100 g body weight
same,Ventral Prostate weight,[3]; [13],28.4 ± 3.1 (5) mg/100 g body weight
same,Seminal Vesicles weight,[3]; [14],9.9 ± 0.4 (5) mg/100 g body weight
same,Ventral Prostate weight,[3]; [14],29.9 ± 1.8 (5) mg/100 g body weight
same,effect on ventral prostate and seminal vesicle weights (in words),[3],dose-dependent decrease
"CC1(C)CCc2cc3c(C(F)(F)F)cc(=O)[nH]c3cc2N1 [LG120907, 1,2,3,4-Tetrahydro-2,2-dimethyl-6-trifluoromethyl-8-pyridono[5,6-g]quinoline]",ED50,[3]; [7],19.2 ± 2.8 mg/kg
same,ED50,[3]; [8],18.3 ± 4.8 mg/kg
same,Seminal Vesicles weight,[3]; [9],32.9 ± 1.2 (5) mg/100 g body weight
same,Ventral Prostate weight,[3]; [9],78.5 ± 2.0 (5) mg/100 g body weight
same,Seminal Vesicles weight,[3]; [10],28.9 ± 1.4 (5) mg/100 g body weight
same,Ventral Prostate weight,[3]; [10],57.3 ± 1.8 (5) mg/100 g body weight
same,Seminal Vesicles weight,[3]; [11],31.7 ± 2.9 (5) mg/100 g body weight
same,Ventral Prostate weight,[3]; [11],66.4 ± 5.6 (5) mg/100 g body weight
same,Seminal Vesicles weight,[3]; [12],28.2 ± 1.8 (5) mg/100 g body weight
same,Ventral Prostate weight,[3]; [12],59.9 ± 2.7 (5) mg/100 g body weight
same,Seminal Vesicles weight,[3]; [13],16.5 ± 0.8 (5) mg/100 g body weight
same,Ventral Prostate weight,[3]; [13],47.4 ± 2.9 (5) mg/100 g body weight
same,Seminal Vesicles weight,[3]; [14],10.4 ± 1.0 (5) mg/100 g body weight
same,Ventral Prostate weight,[3]; [14],20.2 ± 2.0 (5) mg/100 g body weight
